In patent US20030118627A1 (DABUR RESEARCH FOUNDATION, priority 2001, published 2003):

How the values were obtained:
MOLT 4 = assay: MTT cytotoxicity assay, MOLT 4 leukemia; type: cell-based; conditions: Homo sapiens; for IC50: 24 h, Molt 4 Leukemia, read-out: ED50 values of cytotoxicity; for cytotoxicity at 1000 µM / cytotoxicity at 2500 µM / cytotoxicity at 4000 µM / cytotoxicity at 5000 µM / cytotoxicity at 10000 µM: MOLT 4 Leukemia, read-out: Percent cytotoxicity; for cytotoxicity at 1000 µM: 1.0 mM; for cytotoxicity at 2500 µM: 2.5 mM; for cytotoxicity at 4000 µM: 4 mM; for cytotoxicity at 5000 µM: 5 mM; for cytotoxicity at 10000 µM: 10 mM
Protocol: (§1) Briefly, a […] MTT cytotoxicity assay was performed, which is based on the principle of uptake of MTT (3-(4,5-dimethylthiazol-2-yl)-2,5-diphenyl tetrazolium bromide), a tetrazolium salt, by the metabolically active cells where it is metabolized by active mitochondria into a blue colored formazan product that is read spectrophoto-metrically. MTT was dissolved in phosphate buffered saline with a pH of 7.4 to obtain an MTT concentration of 5 mg/ml; the resulting mixture was filtered through a 0.22 micron filter to sterilize and remove a small amount of insoluble residue. For each type of tumor cell, 20,000 to 50,000 cells were seeded in a 96-well culture plate and incubated with the combination in a CO2 incubator for 24 hours. […] The assay was terminated after 24 hours by adding 100 ug (20 ul) of MTT to each well, then incubating for additional one hour, and finally adding 50 ul of 10% SDS-0.01N HCl to each well to lyse the cells and dissolve formazan. After incubating for one hour, the plate was read spectrophotometrically at 540 nm and the percentage cytotoxicity calculated.

PA 1 = assay: MTT cytotoxicity assay, PA 1 ovary; type: cell-based; conditions: Homo sapiens; for IC50: 24 h, PA 1 Ovarian, read-out: ED50 values of cytotoxicity; for cytotoxicity at 1000 µM / cytotoxicity at 2500 µM / cytotoxicity at 4000 µM / cytotoxicity at 5000 µM / cytotoxicity at 10000 µM: PA 1 Ovary, read-out: Percent cytotoxicity; for cytotoxicity at 1000 µM: 1.0 mM; for cytotoxicity at 2500 µM: 2.5 mM; for cytotoxicity at 4000 µM: 4 mM; for cytotoxicity at 5000 µM: 5 mM; for cytotoxicity at 10000 µM: 10 mM
Protocol: as §1

PTC = assay: MTT cytotoxicity assay, PTC colon; type: cell-based; conditions: Homo sapiens; for cytotoxicity at 1000 µM: 1.0 mM; for cytotoxicity at 1000 µM / cytotoxicity at 2500 µM / cytotoxicity at 4000 µM / cytotoxicity at 5000 µM / cytotoxicity at 10000 µM: read-out: Percent cytotoxicity; for cytotoxicity at 2500 µM: 2.5 mM; for cytotoxicity at 4000 µM: 4 mM; for cytotoxicity at 5000 µM: 5 mM; for cytotoxicity at 10000 µM: 10 mM; for IC50: 24 h, read-out: ED50 values of cytotoxicity
Protocol: as §1

Miapaca2 = assay: MTT cytotoxicity assay, Miapaca2 pancreas; type: cell-based; conditions: Homo sapiens; for cytotoxicity at 1000 µM: MIA PaCa-2, 1.0 mM; for cytotoxicity at 1000 µM / cytotoxicity at 2500 µM / cytotoxicity at 4000 µM / cytotoxicity at 5000 µM / cytotoxicity at 10000 µM: read-out: Percent cytotoxicity; for cytotoxicity at 2500 µM: MIA PaCa-2, 2.5 mM; for cytotoxicity at 4000 µM: MIA PaCa-2, 4 mM; for cytotoxicity at 5000 µM: MIA PaCa-2, 5 mM; for cytotoxicity at 10000 µM: MIA PaCa-2, 10 mM; for IC50: MIA PaCa-2, 24 h, read-out: ED50 values of cytotoxicity
Protocol: as §1

DU145 = assay: MTT cytotoxicity assay, DU145 prostate; type: cell-based; conditions: Homo sapiens; for cytotoxicity at 1000 µM: DU-145, 1.0 mM; for cytotoxicity at 1000 µM / cytotoxicity at 2500 µM / cytotoxicity at 4000 µM / cytotoxicity at 5000 µM / cytotoxicity at 10000 µM: read-out: Percent cytotoxicity; for cytotoxicity at 2500 µM: DU-145, 2.5 mM; for cytotoxicity at 4000 µM: DU-145, 4 mM; for cytotoxicity at 5000 µM: DU-145, 5 mM; for cytotoxicity at 10000 µM: DU-145, 10 mM; for IC50: DU-145, 24 h, read-out: ED50 values of cytotoxicity
Protocol: as §1

L132 = assay: MTT cytotoxicity assay, L132 lung; type: cell-based; conditions: Homo sapiens; for cytotoxicity at 1000 µM: 1.0 mM; for cytotoxicity at 1000 µM / cytotoxicity at 2500 µM / cytotoxicity at 4000 µM / cytotoxicity at 5000 µM / cytotoxicity at 10000 µM: read-out: Percent cytotoxicity; for cytotoxicity at 2500 µM: 2.5 mM; for cytotoxicity at 4000 µM: 4 mM; for cytotoxicity at 5000 µM: 5 mM; for cytotoxicity at 10000 µM: 10 mM; for IC50: 24 h, read-out: ED50 values of cytotoxicity
Protocol: as §1

MCF7 = assay: MTT cytotoxicity assay, MCF7 breast; type: cell-based; conditions: Homo sapiens; for IC50: MCF7, 24 h, MCF 7 Breast, read-out: ED50 values of cytotoxicity; for cytotoxicity at 1000 µM / cytotoxicity at 2500 µM / cytotoxicity at 4000 µM / cytotoxicity at 5000 µM / cytotoxicity at 10000 µM: MCF7 breast, read-out: Percent cytotoxicity; for cytotoxicity at 1000 µM: 1.0 mM; for cytotoxicity at 2500 µM: 2.5 mM; for cytotoxicity at 4000 µM: 4 mM; for cytotoxicity at 5000 µM: 5 mM; for cytotoxicity at 10000 µM: 10 mM
Protocol: as §1

U87MG = assay: MTT cytotoxicity assay, U87MG glioblastoma; type: cell-based; conditions: Homo sapiens, U-87 MG, 24 h, read-out: ED50 values of cytotoxicity
Protocol: as §1

KB = assay: MTT cytotoxicity assay, KB oral; type: cell-based; conditions: Homo sapiens, 24 h, read-out: ED50 values of cytotoxicity
Protocol: as §1

Hep2 = assay: MTT cytotoxicity assay, Hep2 larynx; type: cell-based; conditions: Homo sapiens, HEp-2, 24 h, read-out: ED50 values of cytotoxicity
Protocol: as §1

293 = assay: MTT cytotoxicity assay, 293 kidney; type: cell-based; conditions: Homo sapiens, HEK293, 24 h, read-out: ED50 values of cytotoxicity
Protocol: as §1

INT 407 = assay: MTT cytotoxicity assay, INT 407 intestine; type: cell-based; conditions: Homo sapiens, 24 h, read-out: ED50 values of cytotoxicity
Protocol: as §1

Swiss albino mice = conditions: both, mouse, in vivo, po, 15 days
Protocol: Acute toxicity studies were performed using the oral route of administration.
A batch of 5 female and 5 male mice each was administered the test substance by oral route. […] Another batch of 5 female and 5 male served as control.
Observations were made three times on the day of dosing and twice daily thereafter for the remainder of 14 days or until reversible toxic signs or symptoms subsided. All gross visible toxic signs and symptoms were recorded. Body weights were recorded prior to dosing and weekly thereafter.

SMILES: CCOC(=O)C1CCC(=O)N1C(O)C(C)=O (stereo not drawn) [MGC-7, N-(1-hydroxy-2-ketopropyl)-ethylpyroglutamate]
- IC50 (MOLT 4): 1500 ± 200 µM
- cytotoxicity at 1000 µM (MOLT 4): 39.4 ± 2.7%
- cytotoxicity at 2500 µM (MOLT 4): 58.5 ± 3.8%
- cytotoxicity at 4000 µM (MOLT 4): 59.1 ± 4.3%
- cytotoxicity at 5000 µM (MOLT 4): 64.3 ± 4.9%
- cytotoxicity at 10000 µM (MOLT 4): 73.4 ± 2%
- IC50 (PA 1): 1200 ± 200 µM
- cytotoxicity at 1000 µM (PA 1): 45.6 ± 1.9%
- cytotoxicity at 2500 µM (PA 1): 58.4 ± 4.7%
- cytotoxicity at 4000 µM (PA 1): 65.5 ± 3.9%
- cytotoxicity at 5000 µM (PA 1): 79.9 ± 5.2%
- cytotoxicity at 10000 µM (PA 1): 84.9 ± 5.4%
- cytotoxicity at 1000 µM (PTC): 34.3 ± 1.9%
- cytotoxicity at 2500 µM (PTC): 54.3 ± 4.9%
- cytotoxicity at 4000 µM (PTC): 65.9 ± 4.8%
- cytotoxicity at 5000 µM (PTC): 78.2 ± 3.9%
- cytotoxicity at 10000 µM (PTC): 82.2 ± 6.1%
- IC50 (PTC): 2400 ± 500 µM
- cytotoxicity at 1000 µM (Miapaca2): 0%
- cytotoxicity at 2500 µM (Miapaca2): 28 ± 1.5%
- cytotoxicity at 4000 µM (Miapaca2): 89 ± 2.3%
- cytotoxicity at 5000 µM (Miapaca2): 88 ± 4.1%
- cytotoxicity at 10000 µM (Miapaca2): 85 ± 4.1%
- IC50 (Miapaca2): 2400 ± 1000 µM
- cytotoxicity at 1000 µM (DU145): 56 ± 5.9%
- cytotoxicity at 2500 µM (DU145): 65 ± 2.9%
- cytotoxicity at 4000 µM (DU145): 78.4 ± 6.9%
- cytotoxicity at 5000 µM (DU145): 83 ± 4.9%
- cytotoxicity at 10000 µM (DU145): 89 ± 6.1%
- IC50 (DU145): 850 ± 300 µM
- cytotoxicity at 1000 µM (L132): 0%
- cytotoxicity at 2500 µM (L132): 0%
- cytotoxicity at 4000 µM (L132): 0%
- cytotoxicity at 5000 µM (L132): 0%
- cytotoxicity at 10000 µM (L132): 0%
- IC50 (L132): > 5000 µM
- IC50 (MCF7): 2800 ± 1100 µM
- cytotoxicity at 1000 µM (MCF7): 7 ± 1.3%
- cytotoxicity at 2500 µM (MCF7): 10 ± 2.5%
- cytotoxicity at 4000 µM (MCF7): 69 ± 3.2%
- cytotoxicity at 5000 µM (MCF7): 85 ± 4.5%
- cytotoxicity at 10000 µM (MCF7): 83 ± 4.5%
- IC50 (U87MG): 1840 ± 600 µM
- IC50 (KB): 1850 ± 600 µM
- IC50 (Hep2): 2500 ± 1100 µM
- IC50 293: 3100 ± 1300 µM
- IC50 (INT 407): 2700 ± 1200 µM
- safe dose (Swiss albino mice): 100 mg

SMILES: COC(=O)C1CCC(=O)N1C(OC(C)=O)C(C)=O (stereo not drawn) [MGC-4, N-(1-acetoxy-2-ketopropyl)-methylpyroglutamate]
- IC50 (MOLT 4): 1500 ± 200 µM
- cytotoxicity at 1000 µM (MOLT 4): 36.9 ± 3.9%
- cytotoxicity at 2500 µM (MOLT 4): 57.9 ± 3.1%
- cytotoxicity at 4000 µM (MOLT 4): 78.9 ± 4.9%
- cytotoxicity at 5000 µM (MOLT 4): 88.4 ± 7.5%
- cytotoxicity at 10000 µM (MOLT 4): 85.9 ± 7.3%
- IC50 (PA 1): 1600 ± 200 µM
- cytotoxicity at 1000 µM (PA 1): 28.9 ± 3.2%
- cytotoxicity at 2500 µM (PA 1): 67.9 ± 4.9%
- cytotoxicity at 4000 µM (PA 1): 87.9 ± 6.4%
- cytotoxicity at 5000 µM (PA 1): 88.6 ± 6.9%
- cytotoxicity at 10000 µM (PA 1): 88 ± 6.9%
- cytotoxicity at 1000 µM (PTC): 23.9 ± 3%
- cytotoxicity at 2500 µM (PTC): 39 ± 5.2%
- cytotoxicity at 4000 µM (PTC): 56.9 ± 5.9%
- cytotoxicity at 5000 µM (PTC): 84.2 ± 7.4%
- cytotoxicity at 10000 µM (PTC): 87.3 ± 6%
- IC50 (PTC): 3800 ± 1100 µM
- cytotoxicity at 1000 µM (Miapaca2): 0%
- cytotoxicity at 2500 µM (Miapaca2): 3.9 ± 0.5%
- cytotoxicity at 4000 µM (Miapaca2): 46.8 ± 4.9%
- cytotoxicity at 5000 µM (Miapaca2): 57.9 ± 5.9%
- cytotoxicity at 10000 µM (Miapaca2): 79.4 ± 4.8%
- IC50 (Miapaca2): 4200 ± 1100 µM
- cytotoxicity at 1000 µM (DU145): 28.9 ± 4.2%
- cytotoxicity at 2500 µM (DU145): 58.9 ± 4.9%
- cytotoxicity at 4000 µM (DU145): 82.1 ± 7.3%
- cytotoxicity at 5000 µM (DU145): 85.6 ± 7.3%
- cytotoxicity at 10000 µM (DU145): 87.9 ± 7.3%
- IC50 (DU145): 1800 ± 300 µM
- cytotoxicity at 1000 µM (L132): 0%
- cytotoxicity at 2500 µM (L132): 0%
- cytotoxicity at 4000 µM (L132): 0%
- cytotoxicity at 5000 µM (L132): 4.9 ± 0.6%
- cytotoxicity at 10000 µM (L132): 37.9 ± 3.5%
- IC50 (L132): > 5000 µM
- IC50 (MCF7): > 5000 µM
- cytotoxicity at 1000 µM (MCF7): 0%
- cytotoxicity at 2500 µM (MCF7): 0%
- cytotoxicity at 4000 µM (MCF7): 3.8 ± 0.4%
- cytotoxicity at 5000 µM (MCF7): 23.8 ± 0.8%
- cytotoxicity at 10000 µM (MCF7): 31.9 ± 2.9%
- IC50 (U87MG): 2400 ± 500 µM
- IC50 (KB): 1550 ± 300 µM
- IC50 (Hep2): 3200 ± 800 µM
- IC50 293: 1400 ± 100 µM
- IC50 (INT 407): 2300 ± 1100 µM
- safe dose (Swiss albino mice): 100 mg
